The source of these data is patent publication US5441949A, “Carbapenem antibiotic compounds” (Zeneca Limited, priority 1992, dated 1995).

Structures can show the parent of a compound that is named as a salt.

Assay [1] concerns S. aureus Oxford. As to the kind of experiment: antibacterial activity in vitro, agar-dilution MIC, Diagnostic Sensitivity Test, inoculum 10^4 CFU/spot. It counts as cell-based. The conditions noted are these: Staphylococcus aureus.
The test system of assay [2] is E. coli DCO. As to the kind of experiment: microbe, parasite or virus in culture. As to conditions: Escherichia coli. The text has this: The antibacterial activity is described in terms of the minimum inhibitory concentration (MIC) determined by the agar-dilution technique with an inoculum size of 10^4 CFU/spot.
Assay [3] has as its system P. morganii I + 001. The assay can be described thus: antibacterial activity in vitro, agar-dilution MIC, Diagnostic Sensitivity Test, inoculum 10^4 CFU/spot. It is filed as cell-based. The conditions noted are these: Morganella morganii.
Assay [4] relates to Enterobacter cloacae P99-. The assay is described as above. It is filed as cell-based.
In assay [5] the test system is B. fragilis AMP S. The description is as above. It is filed as cell-based. The conditions noted are these: Bacteroides fragilis.

Consider `C[C@@H](O)[C@H]1C(=O)N2C(C(=O)O)=C(S[C@@H]3CN[C@H](C(=O)Nc4cc(C(=O)O)c5ncccc5c4)C3)[C@H](C)[C@H]12` [Example 1, (1R,5S,6S,8R,2'S,4'S) 2-(2-(8-Carboxyquinol-6-ylcarbamoyl)pyrrolidin-4-ylthio)-6-(1-hydroxyethyl)-1-methylcarbapenem-3-carboxylic Acid Disodium Salt], for which the MIC was 0.13 µg/mL in assay [1]; 0.03 µg/mL in assay [2]; 0.03 µg/mL in assay [3]; 0.03 µg/mL in assay [4]; 0.5 µg/mL in assay [5].
